{"source": "patent US20250017907A1", "about": "“METHOD FOR PREVENTING AND/OR TREATING LIVER FIBROSIS BY USING 6-METHOXYBENZOXAZOLINONE AND COIX LACHRYMA-JOBI L. EXTRACT COMPRISING 6-METHOXYBENZOXAZOLINONE” (Taichung District Agricultural Research and Extension …, priority 2023, published 2025)", "assay_type_in_all_cases": "cell-based, rat", "key": {"HSC-T6 cells": {"tested_on": "HSC-T6 cells", "test": "MTT cell viability assay", "conditions": "0-800 μM, 24 h", "protocol": "(§1) The procedure of cell cultures is as follows. HSC-T6 cell is an immortalized cell line isolated from transformed SV40 large T-antigen transformed primary stellate cells of male Sprague-Dawley rats. HSC-T6 cells were maintained in Dulbecco's Modified Eagle Medium (DMEM, Sigma-Aldrich, USA) containing 8% fetal bovine serum (FBS, HyClone, USA), 100 U/mL of penicillin, and 100 μg/mL of streptomycin (Gibco, USA).\nThe procedure of cell viability assay is as follows. HSC-T6 cells were seed at 1.5×10^4 in 96-well plates and were incubated with CX (0-800 μM) or adlay extracts (0-800 μg/mL) for 24 h. Followed by the determination of cell viability with MTT [3-(4,5-Dimethyl-2-thiazolyl)-2,5-diphenyl-2H-tetrazolium bromide] (Sigma-Aldrich, USA). Briefly, MTT was added to each well at a final concentration of […] and was incubated at 37° C. for 1 h. Next, removed the MTT and added the DMSO to dissolve MTT-formazan crystals formed by metabolically viable cells. Finally, the absorbance of each well was detected by a spectrophotometer at the wavelength of 570 nm."}, "[1]": {"tested_on": "TGF-β1-activated HSC-T6 cells", "test": "Western blot of fibrotic and EMT-related proteins", "conditions": "HSC-T6, TGF-β1 10 ng/mL, 24 h", "protocol": "as §1\n(§2) For hepatic stellate cell (HSC) activation, cells were cultured for 24 h and then replaced with serum-free medium for 24 h, after that, treated with transforming growth factor beta 1 (TGF-β1) (10 ng/mL) in the presence or absence of CX (10-100 μM) or adlay leaf, root, and seed extracts (25 and 50 μg/mL) for 24 h, or 30 min for intracellular signal pathways.\nThe procedure of Western blot analysis is as follows. Cells were lysed in RIPA buffer with protease inhibitor and then centrifuged at 4° C., 12000 rpm for 10 min. Collected the supernatant and quantified the total protein concentration to 50 μg. After heating at 95° C. for 10 min, the protein samples were separated by SDS-PAGE gel, transferred to PVDF membrane, followed by blocking with 6% milk, incubated with primary antibodies at 4° C., overnight and secondary antibodies at room temperature for 1 h. Blot images were visualized on Amersham Imager 680 (Cytiva, USA) with ECL agent (GeneDireX, USA)."}, "[2]": {"tested_on": "TGF-β1-activated HSC-T6 cells", "test": "ROS detection assay (DCFDA)", "conditions": "HSC-T6, TGF-β1, CX 10-100 μM, with increasing doses", "protocol": "as §1, §2\nThe procedure of ROS detection assay is as follows. 2′,7′-Dichlorofluorescein diacetate (DCFDA), a cell-permeable fluorogenic probe, is usually used to detect ROS and nitric oxide in live cells. DCFDA rapidly de-esterifies to form fluorescent 2′,7′-dichlorofluorescein (DCF) when it is oxidized by ROS in cells. For ROS detection, cells were seeded in the 96-well plate for 24 h, then starvation (culture in serum-free medium) and drug treatment, followed by changing the medium with DCFDA solution for 30 min, and detecting the excitation/emission spectra of 485/525 nm by multimode microplate readers (TECAN, Switzerland)."}, "[3]": {"tested_on": "TGF-β1-activated HSC-T6 cells", "test": "Real-time PCR of inflammatory factors", "conditions": "HSC-T6, TGF-β1 10 ng/mL, 24 h", "source_text": "The procedure of real-time PCR analysis is as follows. Total RNA was extracted with the Trizol reagent (Ambion, USA) and then reverse-transcribed into cDNA with RevertAid First Strand cDNA Synthesis kit (Thermo Scientific, USA). The PCR amplification was accomplished with SYBR Green PCR Master Mix (Applied Biosystems, USA), and the mRNA expression of the gene was normalized to GAPDH. All primers were obtained from Genomics (Genomics, Taiwan). Rat primer sequences are used for real-time PCR of HSC-T6 cells, and mouse primer sequences are used for real-time PCR of C57BL/6J mice.\nas §1, §2"}}}
{"smiles": "COc1ccc2[nH]c(=O)oc2c1", "note": "[CX, 6-methoxybenzoxazolinone]", "values": [{"measurement": "dose with no significant effects on cell viability", "setting": "HSC-T6 cells", "result": "below 400 μM"}, {"measurement": "TGF-β1-induced COL1A1 expression (Western blot)", "setting": "[1]; CX 10-100 μM", "result": "reduced"}, {"measurement": "TGF-β1-induced fibronectin expression (Western blot)", "setting": "[1]; CX 10-100 μM", "result": "reduced"}, {"measurement": "TGF-β1-induced α-SMA expression (Western blot)", "setting": "[1]; CX 10-100 μM", "result": "reduced"}, {"measurement": "E-cadherin expression (Western blot)", "setting": "[1]; CX even at the lowest dose (10 μM)", "result": "significantly enhanced"}, {"measurement": "TGF-β1-induced ROS levels (DCFDA)", "setting": "[2]", "result": "reduced"}, {"measurement": "TGF-β1-induced IL-6 mRNA level", "setting": "[3]; CX 10, 20, 50, 100 μM", "result": "dose-dependently decreased"}, {"measurement": "TGF-β1-induced TNF-α mRNA level", "setting": "[3]; CX 10, 20, 50, 100 μM", "result": "dose-dependently decreased"}, {"measurement": "IL-10 mRNA level", "setting": "[3]; CX at the highest dose (100 μM)", "result": "significantly increased"}]}
